Source: the NIST ThermoML archive (doi:10.1021/je400917j)
Where “and” joins values, the source holds several entries; their conditions need not be identical. Identical values can stand only once.

Columns and labels:
[1] = xn = mol fraction of the nth substance listed; conditions: 101 kPa, Liquid; for mass density: Vibrating tube method
[2] = 101 kPa, Liquid; for mass density: Vibrating tube method

CC(=O)N(C)C [N,N-dimethylethanamide] + CCCC(C)O
[1], x1 = 1
Conditions	mass density [kg/m3]	viscosity [mPa·s]
298.15 K	936.5	0.94
303.15 K	932	0.87
308.15 K	927.8	0.8
313.15 K	923.5	0.75

CC(C)O [propan-2-ol] + CC(=O)N(C)C
[1], x2 = 0
Conditions	mass density [kg/m3]	viscosity [mPa·s]
298.15 K	781.1	2.05
303.15 K	776.8	1.79
308.15 K	772.4	1.56
313.15 K	767.8	1.35

CC(C)O [propan-2-ol]
[2]
Conditions	mass density [kg/m3]	viscosity [mPa·s]
298.15 K	781.1	2.05
303.15 K	776.8	1.79
308.15 K	772.4	1.56
313.15 K	767.8	1.35

CC(=O)N(C)C [N,N-dimethylethanamide] + CCCCCC(C)O
[1], x1 = 1
Conditions	mass density [kg/m3]	viscosity [mPa·s]
298.15 K	936.5	0.94
303.15 K	932	0.87
308.15 K	927.8	0.8
313.15 K	923.5	0.75

CCCCC(C)O (stereo not drawn) [2-hexanol]
[2]
Conditions	mass density [kg/m3]	viscosity [mPa·s]
298.15 K	810.1	4.1
303.15 K	806.1	3.41
308.15 K	802.1	2.82
313.15 K	798	2.22

CCCCCC(C)O (stereo not drawn) [2-heptanol]
[2]
Conditions	mass density [kg/m3]	viscosity [mPa·s]
298.15 K	813.2	5.3
303.15 K	809.5	4.48
308.15 K	805.7	3.68
313.15 K	801.5	2.96

CCCC(C)O (stereo not drawn) [pentan-2-ol]
[2]
Conditions	mass density [kg/m3]	viscosity [mPa·s]
298.15 K	805.4	3.5
303.15 K	800.9	2.83
308.15 K	796.9	2.35
313.15 K	792.6	1.98

CCC(C)O (stereo not drawn) [butan-2-ol] + CC(=O)N(C)C
[1], x2 = 0
Conditions	mass density [kg/m3]	viscosity [mPa·s]
298.15 K	803	3.1
303.15 K	798.9	2.53
308.15 K	795	2.13
313.15 K	790.2	1.8

CC(=O)N(C)C [N,N-dimethylethanamide] + CCCCC(C)O
[1], x1 = 1
Conditions	mass density [kg/m3]	viscosity [mPa·s]
298.15 K	936.5	0.94
303.15 K	932	0.87
308.15 K	927.8	0.8
313.15 K	923.5	0.75

CCC(C)O (stereo not drawn) [butan-2-ol]
[2]
Conditions	mass density [kg/m3]	viscosity [mPa·s]
298.15 K	803	3.1
303.15 K	798.9	2.53
308.15 K	795	2.13
313.15 K	790.2	1.8

CC(=O)N(C)C [N,N-dimethylethanamide]
[2]
Conditions	mass density [kg/m3]	viscosity
298.15 K	936.5	0.94 mPa·s
303.15 K	932	0.87 mPa·s
308.15 K	927.8	0.82 mPa·s and 0.8 mPa·s
313.15 K	923.5	0.75 mPa·s
